In US20250019385A1, “SPIROCYCLIC ANNULATED 2-AMINO-3-CYANO THIOPHENES AND DERIVATIVES FOR THE TREATMENT OF CANCER” (Boehringer Ingelheim International GmbH, priority 2023, published 2025):

target: KRAS (G12V)::CRAF protein::protein interaction (Homo sapiens (Human), UniProt P01116, C118S/G12V); experiment: KRAS TR-FRET assay (KRAS G12V::CRAF, GTP); type: binding; conditions: not given
Method: (§1) This assay measures the inhibitory effect of compounds on KRAS::CRAF protein::protein interactions in the presence of GTP using Time-resolved fluorescence energy transfer (TR-FRET).
(§2) The following wildtype or mutant alleles of KRAS and CRAF protein have been used at the given concentrations:
KRAS (G12V) 1-169, C118S, N-terminal 6His-tag, C-terminal avi-tag (Boehringer Ingelheim in house protein prep); final assay concentration 15 nM.
(§3) CRAF Ras binding domain, GST-tag, TEV cleavage site (Boehringer Ingelheim in house protein prep); final assay concentration 15 nM.
(§4) Test compounds dissolved in DMSO were dispensed onto assay plates (Proxiplate 384 PLUS, white, PerkinElmer; 6008289) using an Access Labcyte Workstation with the Labcyte Echo 55x. For the chosen highest assay concentration of 100 μM, 150 nl of compound solution was transferred from a 10 mM DMSO compound stock solution. A series of eleven fivefold dilutions per compound was transferred to the assay plate, compound dilutions were tested in duplicates. DMSO was added as backfill to a total volume of 150 nl.
(§5) The assay runs on a fully automated robotic system. To 150 nl of compound dilution 15 μl of a mix including the respective KRAS allele, CRAF (e.g. KRAS (G12D)::CRAF; final assay concentrations see above), GTP nucleotide (Sigma G8877; final assay concentration 10 μM), Lance Eu—W1024 labeled Streptavidin (PerkinElmer, Cat No AD0063; final assay concentration 1.5 nM) and Anti-GST surelight APC (PerkinElmer, Cat No AD0059G; final assay concentration 30 nM) in assay buffer (1×PBS, 0.1% BSA, 0.05% Tween 20) are added into columns 1-23 and 15 μL of the solution without the respective KRAS allele were added to row 24.
(§6) Plates are kept at room temperature in a darkened incubator. After 60 minutes incubation time the signal is measured in a PerkinElmer Envision HTS Multilabel Reader using the TR-FRET LANCE Ultra specs from PerkinElmer.
(§7) Each plate contains 16 wells of a negative control (diluted DMSO instead of test compound; w respective KRAS allele; column 23) and 16 wells of a positive control (diluted DMSO instead of test compound; w/o respective KRAS allele; column 24).
(§8) IC50 values were calculated and analyzed with Boehringer Ingelheim's MEGALAB 50 application using a 4 parametric logistic model.
(§9) Tables of example compounds disclosed herein contain IC50 values determined using the above assays (see Table 44).

Sequence of KRAS (G12V)::CRAF protein::protein interaction (P01116 other isoform, or with tags, fused parts or gaps G12V/C118S): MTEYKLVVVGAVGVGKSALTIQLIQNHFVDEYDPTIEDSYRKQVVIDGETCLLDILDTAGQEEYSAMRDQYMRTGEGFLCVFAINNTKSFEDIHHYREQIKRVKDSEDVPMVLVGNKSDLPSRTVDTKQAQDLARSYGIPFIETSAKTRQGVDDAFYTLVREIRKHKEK

Compound | IC50 [µM]
C[C@H](Oc1nc(-c2onc3c2CCC[C@@]32CCCc3sc(N)c(C#N)c32)nc2c1[nH]c(=O)n2[C@@H]1CCOC1)[C@@H]1CCCN1C [I-8] | 0.02
C[C@H](Oc1nc(-c2onc3c2CCC[C@@]32CCCc3sc(N)c(C#N)c32)nc2c1n(C)c(=O)n2[C@@]12COC[C@@H]1C2)[C@@H]1CCCN1C [I-29] | 0.018
C[C@H](Oc1nc(-c2noc3c2CCC[C@@]32CCCc3sc(N)c(C#N)c32)nc2c1CCCO[C@]21CCOC1)[C@@H]1CCCN1C [II-10] | 0.038
C[C@H](Oc1nc(-c2onc3c2CCC[C@@]32CCCc3sc(N)c(C#N)c32)nc2c1n(C)c(=O)n2[C@@H]1CCCOC1)[C@@H]1CCCN1C [I-12] | 0.022
C[C@H](Oc1nc(-c2noc3c2CCC[C@@]32CCCc3sc(N)c(C#N)c32)nc2c1COC[C@]21CCOC1)[C@@H]1CCCN1C [II-8] | 0.011
COCCn1c(=O)n([C@@H]2CCOC2)c2nc(-c3onc4c3CCC[C@@]43CCCc4sc(N)c(C#N)c43)nc(O[C@@H](C)[C@@H]3CCCN3C)c21 [I-1] | 0.107
C[C@H](Oc1nc(-c2noc3c2CCC[C@@]32CCCc3sc(N)c(C#N)c32)nc2c1CC[C@]21CNCCO1)[C@@H]1C[C@@H](F)CN1C [II-20] | 0.129
Cc1nc2c(O[C@@H](C)[C@@H]3CCCN3C)nc(-c3onc4c3CCC[C@@]43CCCc4sc(N)c(C#N)c43)nc2n1[C@@H]1CCOC1 [I-39] | 0.062
CCn1c(=O)n([C@@H]2CCCOC2)c2nc(-c3onc4c3CCC[C@@]43CCCc4sc(N)c(C#N)c43)nc(O[C@@H](C)[C@@H]3CCCN3C)c21 [I-30] | 0.102
CO[C@H]1CCN(C)[C@@H]1[C@H](C)Oc1nc(-c2noc3c2CCC[C@@]32CCCc3sc(N)c(C#N)c32)nc2c1n(C)c(=O)n2[C@@H]1CCOC1 [II-1] | 0.061
C[C@H](Oc1nc(-c2noc3c2CCC[C@@]32CCCc3sc(N)c(C#N)c32)nc2c1cnn2[C@@H]1CCOC1)[C@@H]1CCCN1C [II-4] | 0.05

target: KRAS (WT)::CRAF protein::protein interaction (Homo sapiens (Human), UniProt P01116); experiment: KRAS TR-FRET assay (KRAS WT::CRAF, GTP); type: binding; conditions: not given
Method: as §1, §2
KRAS (WT) 1-169, N-terminal 6His-tag, C-terminal avi-tag (Boehringer Ingelheim in house protein prep); final assay concentration 15 nM.
as §3, §4, §5, §6, §7, §8, §9

Sequence of KRAS (WT)::CRAF protein::protein interaction (P01116 other isoform, or with tags, fused parts or gaps): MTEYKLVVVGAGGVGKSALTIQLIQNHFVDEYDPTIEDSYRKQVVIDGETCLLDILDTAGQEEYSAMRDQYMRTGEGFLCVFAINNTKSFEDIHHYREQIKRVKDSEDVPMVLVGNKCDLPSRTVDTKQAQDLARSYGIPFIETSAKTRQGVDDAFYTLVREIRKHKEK

Compound | IC50 [µM]
C[C@H](Oc1nc(-c2onc3c2CCC[C@@]32CCCc3sc(N)c(C#N)c32)nc2c1[nH]c(=O)n2[C@@H]1CCOC1)[C@@H]1CCCN1C [I-8] | 0.045
C[C@H](Oc1nc(-c2onc3c2CCC[C@@]32CCCc3sc(N)c(C#N)c32)nc2c1n(C)c(=O)n2[C@@]12COC[C@@H]1C2)[C@@H]1CCCN1C [I-29] | 0.037
C[C@H](Oc1nc(-c2noc3c2CCC[C@@]32CCCc3sc(N)c(C#N)c32)nc2c1CCCO[C@]21CCOC1)[C@@H]1CCCN1C [II-10] | 0.056
C[C@H](Oc1nc(-c2onc3c2CCC[C@@]32CCCc3sc(N)c(C#N)c32)nc2c1n(C)c(=O)n2[C@@H]1CCCOC1)[C@@H]1CCCN1C [I-12] | 0.037
C[C@H](Oc1nc(-c2noc3c2CCC[C@@]32CCCc3sc(N)c(C#N)c32)nc2c1COC[C@]21CCOC1)[C@@H]1CCCN1C [II-8] | 0.024
COCCn1c(=O)n([C@@H]2CCOC2)c2nc(-c3onc4c3CCC[C@@]43CCCc4sc(N)c(C#N)c43)nc(O[C@@H](C)[C@@H]3CCCN3C)c21 [I-1] | 0.16
C[C@H](Oc1nc(-c2noc3c2CCC[C@@]32CCCc3sc(N)c(C#N)c32)nc2c1CC[C@]21CNCCO1)[C@@H]1C[C@@H](F)CN1C [II-20] | 0.815
Cc1nc2c(O[C@@H](C)[C@@H]3CCCN3C)nc(-c3onc4c3CCC[C@@]43CCCc4sc(N)c(C#N)c43)nc2n1[C@@H]1CCOC1 [I-39] | 0.052
CCn1c(=O)n([C@@H]2CCCOC2)c2nc(-c3onc4c3CCC[C@@]43CCCc4sc(N)c(C#N)c43)nc(O[C@@H](C)[C@@H]3CCCN3C)c21 [I-30] | 0.153
CO[C@H]1CCN(C)[C@@H]1[C@H](C)Oc1nc(-c2noc3c2CCC[C@@]32CCCc3sc(N)c(C#N)c32)nc2c1n(C)c(=O)n2[C@@H]1CCOC1 [II-1] | 0.054
C[C@H](Oc1nc(-c2noc3c2CCC[C@@]32CCCc3sc(N)c(C#N)c32)nc2c1cnn2[C@@H]1CCOC1)[C@@H]1CCCN1C [II-4] | 0.081

target: KRAS (G12D)::CRAF protein::protein interaction (Homo sapiens (Human), UniProt P01116, G12D); experiment: KRAS TR-FRET assay (KRAS G12D::CRAF, GTP); type: binding; conditions: not given
Method: as §1, §2
KRAS (G12D) 1-169, N-terminal 6His-tag, C-terminal avi-tag (Xtal BioStructures, Inc.); final assay concentration 15 nM,
as §3, §4, §5, §6, §7, §8, §9

Sequence of KRAS (G12D)::CRAF protein::protein interaction (P01116 other isoform, or with tags, fused parts or gaps G12D): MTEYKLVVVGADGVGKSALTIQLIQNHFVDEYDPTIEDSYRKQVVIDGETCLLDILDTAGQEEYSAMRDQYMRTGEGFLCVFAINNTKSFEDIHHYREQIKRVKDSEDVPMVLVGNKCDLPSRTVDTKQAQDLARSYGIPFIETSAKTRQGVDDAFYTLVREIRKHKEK

Compound | IC50 [µM]
C[C@H](Oc1nc(-c2onc3c2CCC[C@@]32CCCc3sc(N)c(C#N)c32)nc2c1[nH]c(=O)n2[C@@H]1CCOC1)[C@@H]1CCCN1C [I-8] | 0.047
C[C@H](Oc1nc(-c2onc3c2CCC[C@@]32CCCc3sc(N)c(C#N)c32)nc2c1n(C)c(=O)n2[C@@]12COC[C@@H]1C2)[C@@H]1CCCN1C [I-29] | 0.085
C[C@H](Oc1nc(-c2noc3c2CCC[C@@]32CCCc3sc(N)c(C#N)c32)nc2c1CCCO[C@]21CCOC1)[C@@H]1CCCN1C [II-10] | 0.128
C[C@H](Oc1nc(-c2onc3c2CCC[C@@]32CCCc3sc(N)c(C#N)c32)nc2c1n(C)c(=O)n2[C@@H]1CCCOC1)[C@@H]1CCCN1C [I-12] | 0.062
C[C@H](Oc1nc(-c2noc3c2CCC[C@@]32CCCc3sc(N)c(C#N)c32)nc2c1COC[C@]21CCOC1)[C@@H]1CCCN1C [II-8] | 0.017
COCCn1c(=O)n([C@@H]2CCOC2)c2nc(-c3onc4c3CCC[C@@]43CCCc4sc(N)c(C#N)c43)nc(O[C@@H](C)[C@@H]3CCCN3C)c21 [I-1] | 0.145
C[C@H](Oc1nc(-c2noc3c2CCC[C@@]32CCCc3sc(N)c(C#N)c32)nc2c1CC[C@]21CNCCO1)[C@@H]1C[C@@H](F)CN1C [II-20] | 0.082
Cc1nc2c(O[C@@H](C)[C@@H]3CCCN3C)nc(-c3onc4c3CCC[C@@]43CCCc4sc(N)c(C#N)c43)nc2n1[C@@H]1CCOC1 [I-39] | 0.05
CCn1c(=O)n([C@@H]2CCCOC2)c2nc(-c3onc4c3CCC[C@@]43CCCc4sc(N)c(C#N)c43)nc(O[C@@H](C)[C@@H]3CCCN3C)c21 [I-30] | 0.163
CO[C@H]1CCN(C)[C@@H]1[C@H](C)Oc1nc(-c2noc3c2CCC[C@@]32CCCc3sc(N)c(C#N)c32)nc2c1n(C)c(=O)n2[C@@H]1CCOC1 [II-1] | 0.041
C[C@H](Oc1nc(-c2noc3c2CCC[C@@]32CCCc3sc(N)c(C#N)c32)nc2c1cnn2[C@@H]1CCOC1)[C@@H]1CCCN1C [II-4] | 0.097

test system: Ba/F3 cells KRAS G12D; experiment: Ba/F3 proliferation assay (KRAS G12D); type: cell-based; conditions: 72 h, AlamarBlue viability
In short: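 Ba/F3 cells retrovirally transduced with KRAS G12 mutant, puromycin-selected, grown IL-3-independent; seeded in RPMI-1640 + 10% FCS without IL-3. Logarithmic compound dose series in duplicate, 72 h at 37° C., AlamarBlue fluorescence as % of DMSO control; IC50 from four-parameter non-linear regression.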

Compound | IC50 [µM]
C[C@H](Oc1nc(-c2noc3c2CCC[C@@]32CCCc3sc(N)c(C#N)c32)nc2c1CC[C@]21CNCCO1)[C@@H]1C[C@@H](F)CN1C [II-20] | 0.045

same assay, conditions: Mus musculus, BaF3, 72 h, AlamarBlue viability

Compound | IC50 [µM]
C[C@H](Oc1nc(-c2onc3c2CCC[C@@]32CCCc3sc(N)c(C#N)c32)nc2c1[nH]c(=O)n2[C@@H]1CCOC1)[C@@H]1CCCN1C [I-8] | 0.107
C[C@H](Oc1nc(-c2onc3c2CCC[C@@]32CCCc3sc(N)c(C#N)c32)nc2c1n(C)c(=O)n2[C@@]12COC[C@@H]1C2)[C@@H]1CCCN1C [I-29] | 0.014
C[C@H](Oc1nc(-c2noc3c2CCC[C@@]32CCCc3sc(N)c(C#N)c32)nc2c1CCCO[C@]21CCOC1)[C@@H]1CCCN1C [II-10] | 0.022
C[C@H](Oc1nc(-c2onc3c2CCC[C@@]32CCCc3sc(N)c(C#N)c32)nc2c1n(C)c(=O)n2[C@@H]1CCCOC1)[C@@H]1CCCN1C [I-12] | 0.012
C[C@H](Oc1nc(-c2noc3c2CCC[C@@]32CCCc3sc(N)c(C#N)c32)nc2c1COC[C@]21CCOC1)[C@@H]1CCCN1C [II-8] | 0.004
COCCn1c(=O)n([C@@H]2CCOC2)c2nc(-c3onc4c3CCC[C@@]43CCCc4sc(N)c(C#N)c43)nc(O[C@@H](C)[C@@H]3CCCN3C)c21 [I-1] | 0.036
Cc1nc2c(O[C@@H](C)[C@@H]3CCCN3C)nc(-c3onc4c3CCC[C@@]43CCCc4sc(N)c(C#N)c43)nc2n1[C@@H]1CCOC1 [I-39] | 0.024
CCn1c(=O)n([C@@H]2CCCOC2)c2nc(-c3onc4c3CCC[C@@]43CCCc4sc(N)c(C#N)c43)nc(O[C@@H](C)[C@@H]3CCCN3C)c21 [I-30] | 0.029
CO[C@H]1CCN(C)[C@@H]1[C@H](C)Oc1nc(-c2noc3c2CCC[C@@]32CCCc3sc(N)c(C#N)c32)nc2c1n(C)c(=O)n2[C@@H]1CCOC1 [II-1] | 0.009
C[C@H](Oc1nc(-c2noc3c2CCC[C@@]32CCCc3sc(N)c(C#N)c32)nc2c1cnn2[C@@H]1CCOC1)[C@@H]1CCCN1C [II-4] | 0.016
